Source: patent publication US20070202492A1, “Viral Assay” (University Of Warwick, priority 2004, published 2007)
Converted amounts (≈) assume the structure as drawn.

Columns and labels:
APV-luciferase = type: cell-based, avian pneumovirus (APV)
BS-C-1 cells = experiment: Cell viability, MTT assay; type: cell-based
From the text: For the negative control, cells were killed with 1% w/v SDS.

RSV [1] = experiment: microbe, parasite or virus in culture; type: cell-based, human respiratory syncytial virus (RSV)
RSV [2] = experiment: Reduction in plaque number on BS-C-1 cells; type: cell-based, human respiratory syncytial virus (RSV); details: RSV on BS-C-1 cells; 30 μg/ml drug
RSV [3] = details: HeLa cells, Kawana 1987, Watanabe 1994; cited from earlier work
APV = experiment: microbe, parasite or virus in culture; type: cell-based, avian pneumovirus (APV)

SMILES	Antiviral activity against APV (luciferase reporter) (APV-luciferase; 100 ng/ml, FIG. 3C)	Toxicity to the cells (BS-C-1 cells; 100 ng/ml, FIG. 3D)	CAT expression (RSV [1]; RSV, 50 μg/ml, FIG. 1)	Effect on CAT expression (RSV [1]; RSV, lowest concentration tested, 10 μg/ml, FIG. 1)	EC50 (RSV [1]; human respiratory syncytial virus, BSC-1, read-out: EC50 (50% effective concentration)) [µg/mL]	EC90 (RSV [1]; human respiratory syncytial virus, BSC-1, read-out: EC90 (90% effective concentration)) [µg/mL]	Reduction in titre (plaque number) (RSV [2]) [fold]	Inhibition of APV (luciferase reporter) (APV-luciferase; higher concentrations of ribavirin, FIG. 3A)	Toxicity to the cells (BS-C-1 cells; concentrations used in the experiment, FIG. 3B)	EC50, published values (RSV [3]) [µg/mL]	Effect on CAT expression (APV; APV, lowest concentration tested, 10 μg/ml, FIG. 1)	EC50 (APV; avian metapneumovirus, BSC-1, read-out: EC50 (50% effective concentration)) [µg/mL]	EC90 (APV; avian metapneumovirus, BSC-1, read-out: EC90 (90% effective concentration)) [µg/mL]
COc1c(C)c2c(c(O)c1C/C=C(\C)CCC(=O)O)C(=O)OC2 [MPA, mycophenolic acid]	has antiviral activity	not toxic	–	–	–	–	–	–	–	–	–	–	–
NC(=O)c1ncn([C@@H]2O[C@H](CO)[C@@H](O)[C@H]2O)n1 [ribavirin]	–	–	undetectable	obvious inhibitory effect	4.2 (≈ 17.2 µM)	17.1 (≈ 70 µM)	100	strongly inhibited	not toxic	3.1 to 6.2	obvious inhibitory effect	9 (≈ 36.9 µM)	25.4 (≈ 104 µM)
